Measured values published in PMC8476755 (Frontiers in Chemistry, 2021).

Target: T1, GAT1 (Homo sapiens, UniProt P30531)
T1 construct: expressed in transfected cells
Test: FLIPR membrane potential (FMP) assay, CHO cells stably expressing GAT1
Assay type: cell-based
Conditions: n = 2
Description: In order to scrutinize the mode of inhibition of bicyclo-GABA and the N-methylated derivative 2, the ability to be translocated by BGT1 was investigated in the functional FMP assay able to discriminate between substrates and inhibitors, as previously described ([Al-Khawaja et al., 2014]).
The tsA201 cell line (a transformed HEK293 cell line), the Flp-In CHO cell lines stably expressing human (h) GATs and the HEK293 cell line stably expressing human α1β2γ2 GABAA receptors have been described previously and were cultured accordingly ([Al-Khawaja et al., 2014]; [Falk-Petersen et al., 2020]). […]
The FMP assay performed on human α1β2γ2 GABAA receptors in HEK293 cells was performed as described and data analyzed accordingly ([Falk-Petersen et al., 2020]). […] Test compound solutions were prepared at 4x concentration in assay buffer and added to ligand plates pre-heated at 37°C for 10–15 min in the FLEXstation3 plate reader (Molecular Devices). After incubation, 33.3 µL test compound solution (4x) was automatically transferred to each well in the cell plate and the signal was measured for 90 s by measuring emission at 560 nm caused by excitation at 530 nm. […] Data obtained in the FMP assay are given as relative changes in fluorescence units (ΔRFU) by subtracting the average of the baseline fluorescence signal from the peak fluorescence signal after compound addition. […]

T1 sequence (P30531 whole entry): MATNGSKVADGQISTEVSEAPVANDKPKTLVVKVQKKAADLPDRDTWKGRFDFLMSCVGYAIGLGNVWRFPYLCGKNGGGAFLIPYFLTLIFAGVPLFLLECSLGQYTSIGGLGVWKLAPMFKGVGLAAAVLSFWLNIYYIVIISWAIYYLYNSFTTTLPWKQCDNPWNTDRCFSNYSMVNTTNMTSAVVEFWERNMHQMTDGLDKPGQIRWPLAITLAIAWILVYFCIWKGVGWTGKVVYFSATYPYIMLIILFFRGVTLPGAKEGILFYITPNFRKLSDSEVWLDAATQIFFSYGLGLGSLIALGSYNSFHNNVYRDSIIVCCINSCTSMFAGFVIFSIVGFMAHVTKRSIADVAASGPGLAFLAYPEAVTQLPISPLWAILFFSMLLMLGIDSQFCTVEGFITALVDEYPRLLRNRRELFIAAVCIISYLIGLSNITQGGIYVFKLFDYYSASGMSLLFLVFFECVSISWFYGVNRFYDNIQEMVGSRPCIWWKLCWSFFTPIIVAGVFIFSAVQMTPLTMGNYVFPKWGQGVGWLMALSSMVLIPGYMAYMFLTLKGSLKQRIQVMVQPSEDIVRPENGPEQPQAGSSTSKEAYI

Inhibitory effect at GAT1 (in the presence of GABA EC50 concentration (10 µM)): specific to BGT1 | Substrate activity at GAT1 (tested as substrate, without GABA): lack of activity
Structure (SMILES): N[C@@]12CC[C@H](C(=O)O)[C@@H]1C2 [bicyclo-GABA, (1S,2S,5R)-5-aminobicyclo[3.1.0]hexane-2-carboxylic acid]
